The text below walks through data of patent US6740500B1, “Method of screening for non-steroidal neuropsychiatric agents” (priority 2000, dated 2004).

One assay concerns socially isolated mice. As to the kind of experiment: Social-isolation stress mice: brain ALLO content and barbiturate-induced sleeping time. The format is in vivo. The conditions noted are these: single injection 2.6 μmol/Kg i.p.
The test system of assay [1] is ALLO content in rat brain slices. Nature of the assay: ALLO content in vitro in rat brain slices. The format is cell-based. From the text: Presumably, this effect was mediated via an inhibition of the oxidative function of the 3α-HSOR by the FGIN-1 drugs. Such an effect would lead to the accumulation of ALLO, since the reverse step—the reduction of 5α-DHP to ALLO was not affected by these compounds. Similar results were obtained in brain slices of ADX/CX rats.

In a further assay the test system is brain ALLO content. Nature of the assay: Brain ALLO content after fluoxetine in normal and ADX/CX male rats. The assay is classed as in vivo, rat.
The subject of assay [2] is ALLO in the cerebrospinal fluid (CSF). As to the kind of experiment: CSF neurosteroid content in patients with unipolar major depression after SSRI treatment. The format is in vivo, human. To be noted: 8-10 weeks of treatment.
The test system of assay [3] is γ-aminobutyric acid type A (GABAA) receptor. To be noted: at low nanomolar concentrations; cited from earlier work.

Regarding `CNCCC(Oc1ccc(C(F)(F)F)cc1)c1ccccc1` (centres unmarked) [fluoxetine], the “brain content of ALLO and barbiturate-sleeping time” value with socially isolated mice (group-housed mice) is “without altering”. For the same compound, in the assay with socially isolated mice (socially isolated mice), the barbiturate-sleeping time result is given as “normalized” and the “brain content of ALLO” value is “normalized”. Also, the “ALLO content in rat brain slices” value in assay [1] is given as “could increase ALLO content”. In addition, the “increase of brain ALLO content” value in the assay with brain ALLO content (5-20 mg/kg, i.p., normal and ADX/CX male rats) is 2-3 fold. Moreover, in the assay on brain ALLO content (ADX/CX rats, increase from 2 pmol/g), the “brain ALLO content after fluoxetine” value was found to be 8 pmol/g. Also, in the assay with brain ALLO content (also after protracted fluoxetine treatment), the “dose and time dependence of effect on brain ALLO content” value was “dose- and time-dependent”. The “brain ALLO content after fluoxetine” value in the assay on brain ALLO content (normal rats, increase from 3 pmol/g tissue) is given as 9 pmol/g tissue. Further, in the assay on brain ALLO content (rat brain regions), the “brain region specificity of ALLO increase” value was “most pronounced ALLO increase occurring in the olfactory bulb, cortex, and hippocampus”. Besides, the “concentration of ALLO in CSF” value in assay [2] is “significantly increased”.
For the compound `CC(=O)[C@H]1CC[C@H]2[C@@H]3CC[C@H]4C[C@H](O)CC[C@]4(C)[C@H]3CC[C@]12C` [ALLO, 5α-pregnan-3α-ol-20-one], the “modulation of GABAA receptor function” value in assay [3] is given as “positively modulates”.
